SMILES strings stand for the structures.

The target of this assay is T1, Aromatase (Homo sapiens, UniProt P11511).
T1 sequence (P11511 whole entry): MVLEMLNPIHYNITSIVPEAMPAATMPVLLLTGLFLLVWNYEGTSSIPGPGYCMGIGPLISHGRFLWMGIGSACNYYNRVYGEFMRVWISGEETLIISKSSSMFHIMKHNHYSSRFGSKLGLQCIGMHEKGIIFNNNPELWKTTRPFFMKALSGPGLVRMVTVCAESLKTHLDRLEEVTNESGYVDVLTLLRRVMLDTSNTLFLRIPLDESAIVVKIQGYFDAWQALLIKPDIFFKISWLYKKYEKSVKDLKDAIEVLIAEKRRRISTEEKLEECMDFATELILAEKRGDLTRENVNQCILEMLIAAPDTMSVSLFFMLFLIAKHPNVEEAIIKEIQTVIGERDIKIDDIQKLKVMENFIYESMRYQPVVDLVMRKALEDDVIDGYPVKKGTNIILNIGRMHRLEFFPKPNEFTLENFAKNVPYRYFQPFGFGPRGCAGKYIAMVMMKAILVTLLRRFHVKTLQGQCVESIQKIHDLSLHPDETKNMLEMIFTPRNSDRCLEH
Description: Inhibition of human placental aromatase, cytochrome P450 19A1 at 20 uM
The term inhibition denotes the relative decrease from the control value, in per cent. Low values mean a weak effect, high ones a strong effect. In turn, `Cc1ccc(C(c2cc3ccccc3o2)n2cnnn2)cc1` (stereo not drawn) came in with an inhibition at 20 µM of 67.2%.

Consider `O=[N+]([O-])c1ccc2oc(C(c3ccccc3)n3cnnn3)cc2c1` (stereo not drawn), for which 20 µM produced 14.4% inhibition.

Consider `c1ccc(C(c2cc3ccccc3o2)n2cncn2)cc1` (stereo not drawn), for which the inhibition at 20 µM was 85.7%.

(Values after ChEMBL document CHEMBL1131809, “1-[(Benzofuran-2-yl)phenylmethyl]-triazoles and -tetrazoles - potent competitive inhibitors of aromatase” (Bioorg Med Chem Lett, 1999).)
